# Read-outs that look alike come from different tables or passages of the source.
# Assays:
# JAK3 = JAK3 (Homo sapiens (Human), UniProt P52333); test: Omnia assay for potency assessment against the active form of JAK3; type: biochemical; conditions: read-out: JAK3 Inhibition
# Procedure: Briefly, 10× stocks of EGFR-WT (PV3872) from Invitrogen and EGFR-T790M/L858R (40350) from BPS Bioscience, San Diego, Calif., 1.13×ATP (AS001A) and appropriate Tyr-Sox conjugated peptide substrates (KCZ1001) were prepared in 1× kinase reaction buffer consisting of 20 mM Tris, pH 7.5, 5 mM MgCl2, 1 mM EGTA, 5 mM β-glycerophosphate, 5% glycerol (10× stock, KB002A) and 0.2 mM DTT (DS001A).
# The Omnia Assay Protocol for potency assessment against JAK3 was performed in a substantially similar manner as that described in Example 251 above except that the modified JAK3-optimized reagent conditions were:
# [JAK3]=5 nM, [ATP]=5 μM, [Y12-Sox]=5 μM (ATP KMapp˜5 μM).
# [1] = test system: B cell lymphoma cell lines; test: B cell lymphoma proliferation assay; type: cell-based
# [2] = Homo sapiens, DOHH-2, DOHH2 B cell lymphoma cell line, read-out: EC50 (μM) DOHH2
# [3] = DHL4 B cell lymphoma cell line, read-out: EC50 (μM) DHL4
# [4] = Homo sapiens, WSUDLCL2, WSU-DLCL2 B cell lymphoma cell line, read-out: EC50 (μM) WSU-DLCL2
# JAK3, sequence (P52333 whole entry): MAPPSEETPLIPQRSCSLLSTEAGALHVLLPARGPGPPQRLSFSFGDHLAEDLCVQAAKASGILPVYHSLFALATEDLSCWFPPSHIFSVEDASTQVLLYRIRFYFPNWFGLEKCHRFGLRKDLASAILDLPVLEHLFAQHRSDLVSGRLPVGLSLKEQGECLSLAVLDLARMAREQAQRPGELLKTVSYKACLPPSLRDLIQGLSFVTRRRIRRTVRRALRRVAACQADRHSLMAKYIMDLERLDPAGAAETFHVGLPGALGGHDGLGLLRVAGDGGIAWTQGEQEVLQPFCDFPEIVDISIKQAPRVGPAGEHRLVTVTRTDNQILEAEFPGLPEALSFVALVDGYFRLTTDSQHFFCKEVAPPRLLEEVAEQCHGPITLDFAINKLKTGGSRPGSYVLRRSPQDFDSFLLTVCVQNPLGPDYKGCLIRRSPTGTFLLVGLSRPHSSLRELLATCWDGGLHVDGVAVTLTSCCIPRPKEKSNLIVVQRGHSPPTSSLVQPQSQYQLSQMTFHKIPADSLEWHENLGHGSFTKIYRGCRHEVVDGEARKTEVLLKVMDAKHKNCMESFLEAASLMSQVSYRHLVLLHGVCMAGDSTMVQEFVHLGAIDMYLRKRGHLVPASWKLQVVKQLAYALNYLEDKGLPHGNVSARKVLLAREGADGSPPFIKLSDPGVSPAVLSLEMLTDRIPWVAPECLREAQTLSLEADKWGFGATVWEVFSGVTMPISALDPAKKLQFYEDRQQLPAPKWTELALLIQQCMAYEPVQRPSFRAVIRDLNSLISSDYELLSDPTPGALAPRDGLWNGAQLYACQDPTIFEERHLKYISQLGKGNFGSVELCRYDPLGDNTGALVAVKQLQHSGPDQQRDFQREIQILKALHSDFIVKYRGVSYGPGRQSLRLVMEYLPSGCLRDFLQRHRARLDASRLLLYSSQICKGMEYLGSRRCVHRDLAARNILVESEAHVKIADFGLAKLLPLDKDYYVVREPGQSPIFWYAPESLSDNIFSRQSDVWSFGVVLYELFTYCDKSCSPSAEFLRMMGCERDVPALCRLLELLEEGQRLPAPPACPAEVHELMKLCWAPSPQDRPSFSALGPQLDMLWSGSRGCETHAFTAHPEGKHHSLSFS
IC50 (JAK3) [nM],"EC50 [1, 2] [µM]",Compound,also measured
100 to 1000,,"C/C=C/C(=O)OCc1cccc(Nc2nc(Nc3ccccc3)ncc2C)c1 [Compound I-246, (E)-3-(5-methyl-2-(phenylamino)pyrimidin-4-ylamino)benzyl but-2-enoate]",
< 10,,"C=CC(=O)Nc1cccc(Nc2nccc(Nc3cccc(C)c3)n2)c1 [Compound I-1, N-(3-(4-(m-tolylamino)pyrimidin-2-ylamino)phenyl)acrylamide]",
< 10,,"C=CC(=O)Nc1cccc(Nc2ncc(C)c(Nc3cccc(Br)c3)n2)c1 [Compound I-9, N-(3-(4-(3-bromophenylamino)-5-methylpyrimidin-2-ylamino)phenyl) acrylamide]",
10 to 100,,"C=CC(=O)Nc1cccc(N(C)c2nc(Nc3ccccc3)ncc2C)c1 [Compound I-34, N-(3-(methyl(5-methyl-2-(phenylamino)pyrimidin-4-yl)amino)phenyl)acrylamide]",
< 10,,"C=CC(=O)Nc1ccc(C)c(Nc2ncc(C)c(Nc3cccc(C)c3)n2)c1 [Compound I-8, N-(4-methyl-3-(5-methyl-4-(m-tolylamino)pyrimidin-2-ylamino)phenyl)acrylamide]",
1000 to 10000,,"C=CC(=O)Nc1cccc(Nc2nc(NC3CCCN(C(C)=O)C3)ncc2F)c1 (centres unmarked) [Compound I-238, N-(3-(2-(1-acetylpiperidin-3-ylamino)-5-fluoropyrimidin-4-ylamino)phenyl)acrylamide]",
< 10,,"C=CC(=O)Nc1cccc(Nc2nc(Nc3cccc(S(N)(=O)=O)c3)ncc2C)c1 [Compound I-33, N-(3-(5-methyl-2-(3-sulfamoylphenylamino)pyrimidin-4-ylamino)phenyl)acrylamide]",
,0.1 to 1,"C=CC(=O)Nc1cccc(Nc2nc(Nc3ccc(OCC4CCN(C)CC4)nc3)ncc2F)c1 [Compound I-78, N-(3-(5-fluoro-2-(6-((1-methylpiperidin-4-yl)methoxy)pyridin-3-ylamino)pyrimidin-4-ylamino)phenyl)acrylamide]",
,1 to 10,"C=CC(=O)N1CCOc2ccc(Nc3nc(Nc4ccc(N5CCOCC5)cc4)ncc3C(C)=O)cc21 [Compound I-169, 1-{6-[5-Acetyl-2-(4-morpholin-4-yl-phenylamino)-pyrimidin-4-ylamino]-2,3-dihydro-benzo[1,4]oxazin-4-yl}-propenone]",
< 10,,"C=CC(=O)Nc1cccc(Nc2ncc(C)c(Nc3ccccc3)n2)c1 [Compound I-5, N-(3-(5-methyl-4-(phenylamino)pyrimidin-2-ylamino)phenyl) acrylamide]",
,0.1 to 1,"C=CC(=O)Nc1cccc(Nc2nc(Nc3ccc(N(C)CCOC)nc3)ncc2F)c1 [Compound I-77, N-(3-(5-fluoro-2-(6-((2-methoxyethyl)(methyl)amino)pyridin-3-ylamino)pyrimidin-4-ylamino)phenyl)acrylamide]",
< 10,,"C=CC(=O)Nc1cccc(Nc2nc(Nc3cccc(OCCCNC(=O)OC(C)(C)C)c3)ncc2C)c1 [Compound I-45, tert-butyl 3-(3-(4-(3-acrylamidophenylamino)-5-methylpyrimidin-2-ylamino)phenoxy)propylcarbamate]",
,1 to 10,"C=CC(=O)Nc1cccc(Nc2nc(Nc3ccc(OCCOC)cc3)ncc2C(C)=O)c1 [Compound I-124, N-(3-{5-Acetyl-2-[4-(2-methoxy-ethoxy)-phenylamino]-pyrimidin-4-ylamino}-phenyl)-acrylamide]",
,1 to 10,C=CC(=O)Nc1cccc(Nc2nc(Nc3ccc4c(cnn4C)c3)ncc2F)c1 [Compound I-155],"EC50 [1, 3]: 1 to 10 µM; EC50 [1, 4]: 1 to 10 µM"
,0.1 to 1,"C=CC(=O)Nc1cccc(Nc2nc(Nc3cc(OC)c(OC)c(OC)c3)ncc2F)c1 [Compound I-133, 4-(3-acrylamidophenylamino)-5-fluoro-2-(3,4,5-trimethoxyphenylamino)-pyrimidine]","EC50 [1, 3]: < 0.1 µM"
,1 to 10,"C=CC(=O)Nc1cccc(Nc2nc(Nc3ccc(OC(C)C)nc3)ncc2F)c1 [Compound I-172, N-(3-(5-fluoro-2-(6-isopropoxypyridin-3-ylamino)pyrimidin-4-ylamino)phenyl)acrylamide]",

IC50 (JAK3) [nM],"EC50 [1, 2] [µM]",Compound,also measured
10 to 100,,"C=CC(=O)Nc1ccc(C)c(Nc2nccc(-c3cccnc3)n2)c1 [Compound I-56, N-(4-methyl-3-(4-(pyridin-3-yl)pyrimidin-2-ylamino)phenyl)acrylamide]",
,< 0.1,"C=CC(=O)Nc1cccc(Nc2nc(Nc3ccc4c(c3)N(C)CCO4)ncc2F)c1 [Compound I-126, N-(3-(2-(4-methyl-2,3-dihydrobenzo[1,4]oxazin-6-yl)amino-5-fluoropyrimidin-4-ylamino)phenyl)acrylamide]",
,1 to 10,"C=CC(=O)Nc1cccc(Nc2nc(Nc3ccc(OC)nc3)ncc2C2CC2)c1 [Compound I-167, N-(3-(5-cyclopropyl-2-(6-methoxypyridin-3-ylamino)pyrimidin-4-ylamino)phenyl)acrylamide]",
,1 to 10,"C=CC(=O)Nc1cccc(Oc2nc(Nc3ccc(OC)nc3)ncc2C(=O)Nc2ccccc2)c1 [Compound I-159, 4-(3-acrylamidophenoxy)-2-(6-methoxypyridin-3-ylamino)-pyrimidine-5-carboxylic acid phenylamide]",
,> 10,"C=CC(=O)N1CCC[C@@H](Nc2nc(Nc3cccc(OCCN4CCOCC4)c3)ncc2F)C1 [Compound I-135, (R)-1-(3-(5-fluoro-2-(3-(2-morpholinoethoxy)phenylamino)pyrimidin-4-ylamino)piperidin-1-yl)prop-2-en-1-one]","EC50 [1, 3]: > 10 µM"
,1 to 10,"C=CC(=O)Nc1cccc(Oc2nc(Nc3ccc(OC)nc3)ncc2C)c1 [Compound I-186, N-(3-(2-(6-methoxypyridin-3-ylamino)-5-methylpyrimidin-4-yloxy)phenyl)acrylamide]","EC50 [1, 3]: 1 to 10 µM"
,> 10,"C=CC(=O)Nc1cccc(Nc2nc(Nc3ccc(OC)nc3)ncc2C(N)=O)c1 [Compound I-209, 4-(3-acrylamidophenylamino)-2-(6-methoxypyridin-3-ylamino)pyrimidine-5-carboxamide]","EC50 [1, 4]: 1 to 10 µM"
,1 to 10,"C=CC(=O)Nc1cccc(N(C(=O)C=C)c2nc(Nc3ccc(OC)nc3)ncc2C#N)c1 [Compound I-171, N-(3-acrylamidophenyl)-N-(5-cyano-2-(6-methoxypyridin-3-ylamino)pyrimidin-4-yl)acrylamide]",
,1 to 10,"C=CC(=O)N1CCOc2ccc(Nc3nc(Nc4ccc(OCCO)nc4)ncc3C(C)=O)cc21 [Compound I-128, 1-(6-{5-Acetyl-2-[6-(2-hydroxy-ethoxy)-pyridin-3-ylamino]-pyrimidin-4-ylamino}-2,3-dihydro-benzo[1,4]oxazin-4-yl)-propenone]",
100 to 1000,,"C=CC(=O)Nc1cccc(Nc2nc(NCc3ccc(OC)cc3)ncc2F)c1 [Compound I-241, N-(3-(5-fluoro-2-(4-methoxybenzylamino)pyrimidin-4-ylamino)phenyl)acrylamide]",
,1 to 10,"C=CC(=O)Nc1cccc(Oc2nc(Nc3ccc(OC)nc3)ncc2C(C)=O)c1 [Compound I-188, N-{3-[5-Acetyl-2-(6-methoxy-pyridin-3-ylamino)-pyrimidin-4-yloxy]-phenyl}-acrylamide]",
> 10000,,"COCCOc1ccc(Nc2ncc(F)c(Nc3cccc(C(=O)C=C(C)C)c3)n2)cc1F [Compound I-323, 1-(3-(5-fluoro-2-(3-fluoro-4-(2-methoxyethoxy)phenylamino)pyrimidin-4-ylamino)phenyl)-3-methylbut-2-en-1-one]",
,1 to 10,"C=CC(=O)Nc1cccc(Nc2nc(Nc3cccc(OC)c3)ncc2OC)c1 [Compound I-158, N-(3-(5-methoxy-2-(3-methoxyphenylamino)pyrimidin-4-ylamino)phenyl)acrylamide]","EC50 [1, 3]: 1 to 10 µM; EC50 [1, 4]: 1 to 10 µM"
,0.1 to 1,C=CC(=O)Nc1cccc(Nc2nc(Nc3ccc4[nH]ncc4c3)ncc2F)c1 [Compound I-156],"EC50 [1, 3]: 1 to 10 µM; EC50 [1, 4]: 1 to 10 µM"
,1 to 10,"C=CC(=O)Nc1cccc(Nc2nc(Nc3cccc(S(N)(=O)=O)c3)ncc2F)c1 [Compound I-160, N-(3-(5-fluoro-2-(3-sulfamoylphenylamino)pyrimidin-4-ylamino)phenyl)acrylamide]","EC50 [1, 3]: 1 to 10 µM; EC50 [1, 4]: 1 to 10 µM"
,1 to 10,"C=CC(=O)N1CCC[C@@H](Nc2nc(Nc3cccc(Cl)c3)ncc2F)C1 [Compound I-147, (R)-1-(3-(2-(3-chlorophenylamino)-5-fluoropyrimidin-4-ylamino)piperidin-1-yl)prop-2-en-1-one]",
,1 to 10,"C=CC(=O)N1CCOc2ccc(Nc3nc(Nc4ccc(N(C)C(=O)C(F)(F)F)nc4)ncc3C(C)=O)cc21 [Compound I-142, N-(5-(5-acetyl-4-(4-acryloyl-3,4-dihydro-2H-benzo[b][1,4]oxazin-6-ylamino)pyrimidin-2-ylamino)pyridin-2-yl)-2,2,2-trifluoro-N-methylacetamide]",

Compound,IC50 (JAK3) [nM],"EC50 [1, 2] [µM]",also measured
"C=CC(=O)Nc1cccc(Nc2nc(Nc3ccc(OC4CCC4)nc3)ncc2F)c1 [Compound I-79, N-(3-(2-(6-cyclobutoxypyridin-3-ylamino)-5-fluoropyrimidin-4-ylamino)phenyl)acrylamide]",,1 to 10,

# From US10596172B2 (Celgene CAR LLC, priority 2008, dated 2020)
